Values quoted from earlier work, collected in PMC2984425, “Safety and pharmacokinetics of novel selective vascular endothelial growth factor receptor-2 inhibitor YN968D1 in patients with advanced malignancies” (BMC Cancer, 2010).

Tests used:
xenograft = system: xenograft; design: method as in ref 8 = [8]; Chen P Iruela-Arispe L Lou L Sun P Yuan K VEGFr inhibitor YN968D1 xenograft dose response studies against human colon cancer Ls174t and HT29 Proc Amer Assoc Cancer Res 2006 47 abst 1764; settings: xenograft study; cited from earlier work
VEGFR-2 = settings: no reference given; read-out: IC50, inhibitory effect on VEGFR-2; cited from earlier work
dogs = settings: previously established; cited from earlier work

N#CC1(c2ccc(NC(=O)c3cccnc3NCc3ccncc3)cc2)CCCC1 [apatinib]
in vivo efficacy compared to valatinib (xenograft): superior in vivo efficacy
IC50 (VEGFR-2): 2.43 nM
maximum-tolerated dose (MTD) in dogs (dogs): above 30 mg/kg
